From patent US6727226B2 (priority 2000, dated 2004)

Assays:
neurotensin receptors = details: in vivo; cited from earlier work
[1] = guinea pig, in vivo

| Compound | potency in inhibiting pain relative to neurotensin (neurotensin receptors) | duration of local anesthesia [1] |
| --- | --- | --- |
| contulakin-G | significantly more potent than neurotensin | – |
| CCCCN1CCCCC1C(=O)Nc1c(C)cccc1C (centres unmarked) [bupivacaine] | – | slightly longer duration thatn lidocaine |
